The record followed here is US20110144159A1, “ETHER BENZYLIDENE PIPERIDINE ARYL CARBOXAMIDE COMPOUNDS USEFUL AS FAAH INHIBITORS” (Pfizer Inc, priority 2008, published 2011).

The target of one assay is T1, Human FAAH (Homo sapiens, UniProt O00519).
T1 construct: made in house
T1 sequence (O00519 32-579 limits assumed): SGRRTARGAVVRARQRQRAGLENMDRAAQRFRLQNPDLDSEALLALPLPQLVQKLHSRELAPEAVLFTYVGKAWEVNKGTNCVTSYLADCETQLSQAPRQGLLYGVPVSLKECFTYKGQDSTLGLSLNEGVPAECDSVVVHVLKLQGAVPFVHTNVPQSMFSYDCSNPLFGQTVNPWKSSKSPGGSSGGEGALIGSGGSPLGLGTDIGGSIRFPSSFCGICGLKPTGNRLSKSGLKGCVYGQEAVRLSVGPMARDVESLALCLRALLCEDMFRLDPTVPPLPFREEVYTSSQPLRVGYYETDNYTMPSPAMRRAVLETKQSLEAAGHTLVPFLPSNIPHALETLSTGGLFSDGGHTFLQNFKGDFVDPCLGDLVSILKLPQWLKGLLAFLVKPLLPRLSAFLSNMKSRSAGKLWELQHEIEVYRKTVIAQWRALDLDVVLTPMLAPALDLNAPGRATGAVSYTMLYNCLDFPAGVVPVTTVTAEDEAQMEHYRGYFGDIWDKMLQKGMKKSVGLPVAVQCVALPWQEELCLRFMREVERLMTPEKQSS
As to the kind of experiment: FAAH assay (glutamate dehydrogenase-coupled, oleamide substrate, absorbance at 340 nm). In kind it is biochemical. As to conditions: further compounds, read-out: hFAAH_Kinact/Ki—StL. Here is the method:
A FAAH assay may be carried out in 384-well clear polystyrene plates in a total volume of 50 μl per well. All percents are by volume. To each well was placed the reaction mixture (40 μl) containing 1-4 nM FAAH, 50 mM NaPi, pH 7.4, 3 mM α-ketoglutarate, 0.15 mM NADH, 7.5 U/ml glutamate dehydrogenase, 2 mM ADP, 1 mM EDTA, and 0.1% Triton X-100 (The concentration shown for each component was the final concentration in the assay). To this mixture was added 5 μl of a compound of Examples 1 to 20 at various concentrations prepared in 50% DMSO (or 5 μl 50% DMSO for controls). This was immediately followed by the addition of 5 μl oleamide (500 μM) dissolved in 75% EtOH/25% DMSO and the reaction mixture was mixed for 1.5 min. The final concentrations of DMSO and EtOH in the assay are each 7.5%. The reactions was then incubated at 30° C. and the absorbance at 340 nm was collected over a period of 90 min with readings taken in 30-second intervals using SpectraMax Plus^384 Microplate Spectrophotometer (Molecular Devices, Sunnyvale, Calif.). Human FAAH used in the assay was prepared as described in the patent application WO 2006/067613. The purity of the enzyme used was greater than 98% based on an analysis by SDS-polyacrylamide gel electrophoresis followed by Coomassie Blue staining.
Initial velocity data (V) is obtained from the slopes of the initial progressive curves. They are plotted as a function of substrate concentration and fit to the Michaelis-Menten equation (1) using Prism (GraphPad Software, Inc., San Diego, Calif.) software to obtain Km and Vmax values.
To obtain potencies of irreversible inhibitors, progressive curves consistent with first order inhibition kinetics (two-step irreversible inhibition mechanism) are fit to equation (2) by nonlinear least squares regressions to determine kobs values at each inhibitor concentration, where [P]t is the absorbance at time t, V0 is a constant related to the steady state rate of the uninhibited reaction, and kobs is the first order rate constant for enzyme inactivation. The inhibitor dissociation constant (Ki) and the first order rate
constant of enzyme inactivation at infinite inhibitor concentration (kinact) are then obtained by fitting the kobs vs. [I] curves to equation (3).
On to `Cc1ccc(NC(=O)N2CCC(=Cc3cccc(OCC4CCCCO4)c3)CC2)cn1` (stereo not shown) [N-(6-methylpyridin-3-yl)-4-[3-(tetrahydro-2H-pyran-2-ylmethoxy)benzylidene]piperidine-1-carboxamide], for which the kinact/KI turned out to be 536 M⁻¹ s⁻¹.

Still in this assay, the particulars now being: irreversible inhibition potency.
Consider `COc1cccc(C=C2CCN(C(=O)Nc3cccnc3)CC2)c1` [Example 2, 4-(3-methoxybenzylidene)-N-pyridin-3-ylpiperidine-1-carboxamide], for which the “hFAAH KInact/K” value came to 973 M⁻¹ s⁻¹. For the molecule `COC(COc1cccc(C=C2CCN(C(=O)Nc3cccnn3)CC2)c1)c1ccccc1` (stereo not shown) [Example 56, 4-[3-(2-methoxy-2-phenylethoxy)benzylidene]-N-pyridazin-3-ylpiperidine-1-carboxamide], the “hFAAH KInact/K” value was 149 M⁻¹ s⁻¹. In the case of `O=C(Nc1cccnn1)N1CCC(=Cc2ccc3c(c2)OCO3)CC1` [Example 3, 4-(1,3-benzodioxol-5-ylmethylene)-N-pyridazin-3-ylpiperidine-1-carboxamide], the “hFAAH KInact/K” value came out at 2870 M⁻¹ s⁻¹. For `CCC(CC)Oc1cccc(C=C2CCN(C(=O)Nc3cccnc3)CC2)c1` [Example 14, 4-[3-(1-ethylpropoxy)benzylidene]-N-pyridin-3-ylpiperidine-1-carboxamide], the “hFAAH KInact/K” value stood at 718 M⁻¹ s⁻¹.

On to `O=C(Nc1cccnn1)N1CCC(=Cc2cccc(OC3CCCOC3)c2)CC1` (stereo not shown) [Example 19, N-pyridazin-3-yl-4-[3-(tetrahydro-2H-pyran-3-yloxy)benzylidene]piperidine-1-carboxamide], for which the “hFAAH KInact/K” value came to 783 M⁻¹ s⁻¹.

As for `O=C(Nc1cccnn1)N1CCC(=Cc2cccc(OC3CCC3)c2)CC1` [Example 9, 4-[3-(cyclobutyloxy)benzylidene]-N-pyridazin-3-ylpiperidine-1-carboxamide], the “hFAAH KInact/K” value came out at 531 M⁻¹ s⁻¹.

On to `CCCC(C)Oc1cccc(C=C2CCN(C(=O)Nc3cccnn3)CC2)c1` (stereo not shown) [Example 30, 4-[3-(1-methylbutoxy)benzylidene]-N-pyridazin-3-ylpiperdine-1-carboxamide], for which the “hFAAH KInact/K” value was determined as 3440 M⁻¹ s⁻¹.

Regarding `CCC(C)Oc1cccc(C=C2CCN(C(=O)Nc3cccnc3)CC2)c1` (stereo not shown) [Example 24, 4-(3-sec-butoxybenzylidene)-N-pyridin-3-ylpiperidine-1-carboxamide], the “hFAAH KInact/K” value was determined as 758 M⁻¹ s⁻¹.

Turning to `O=C(Nc1cccnn1)N1CCC(=Cc2cccc(OCc3cc4ccccc4o3)c2)CC1` [Example 88, 4-[3-(1-benzofuran-2-ylmethoxy)benzylidene]-N-pyridazin-3-ylpiperidine-1-carboxamide], the “hFAAH KInact/K” value was determined as 629 M⁻¹ s⁻¹. Turning to `O=C(Nc1cccnn1)N1CCC(=Cc2cccc(OC(F)(F)F)c2)CC1` [Example 5, N-pyridazin-3-yl-4-[3-(trifluoromethoxy)benzylidene]piperidine-1-carboxamide], the “hFAAH KInact/K” value was found to be 2250 M⁻¹ s⁻¹. Same read-out and setting: with `CC(C)CCOc1cccc(C=C2CCN(C(=O)Nc3cccnn3)CC2)c1` [Example 62, 4-[3-(3-methylbutoxy)benzylidene]-N-pyridazin-3-ylpiperidine-1-carboxamide] the figure was 15200 M⁻¹ s⁻¹; with `CCC(C)Oc1cccc(C=C2CCN(C(=O)Nc3cccnn3)CC2)c1` (stereo not shown) [Example 22, 4-(3-sec-butoxybenzylidene)-N-pyridazin-3-ylpiperidine-1-carboxamide], 1260 M⁻¹ s⁻¹. “4-(3-{[trans-4-(cyanomethyl)cyclohexyl]methoxy}benzylidene)-N-pyridazin-3-ylpiperidine-1-carboxamide [Example 96]”: the “hFAAH KInact/K” value was determined as 1470 M⁻¹ s⁻¹.

With `O=C(Nc1cccnn1)N1CCC(=Cc2cccc(OC3CCCCC3)c2)CC1` [Example 10, 4-[3-(cyclohexyloxy)benzylidene]-N-pyridazin-3-ylpiperidine-1-carboxamide], the “hFAAH KInact/K” value was 3300 M⁻¹ s⁻¹. On to `COc1cccc(C=C2CCN(C(=O)Nc3cccnn3)CC2)c1` [Example 6, 4-(3-methoxybenzylidene)-N-pyridazin-3-ylpiperidine-1-carboxamide], for which the “hFAAH KInact/K” value turned out to be 1480 M⁻¹ s⁻¹. On to “4-[3-(1-methyl-2-phenoxyethoxy)benzylidene]-N-pyridazin-3-ylpiperidine-1-carboxamide [Example 90]”, for which the “hFAAH KInact/K” value worked out at 3971 M⁻¹ s⁻¹. As to `O=C(Nc1cccnn1)N1CCC(=Cc2cccc(OCc3cccc(C(F)(F)F)n3)c2)CC1` [Example 71, N-pyridazin-3-yl-4-(3-{[6-(trifluoromethyl)pyridin-2-yl]methoxy}benzylidene)piperidine-1-carboxamide], the “hFAAH KInact/K” value is 294 M⁻¹ s⁻¹. Consider `O=C(Nc1cccnn1)N1CCC(=Cc2cccc(OCCc3ccccc3)c2)CC1` [Example 75, 4-[3-(2-phenylethoxy)benzylidene]-N-pyridazin-3-ylpiperidine-1-carboxamide], for which the “hFAAH KInact/K” value is 36139 M⁻¹ s⁻¹. Still for that read-out and setting: as for “4-{3-[(2,4-dimethyl-1,3-thiazol-5-yl)methoxy]benzylidene}-N-pyridazin-3-ylpiperidine-1-carboxamide [Example 69]”, the figure is 331 M⁻¹ s⁻¹; as for `Cc1cc(COc2cccc(C=C3CCN(C(=O)Nc4cccnn4)CC3)c2)c(C(F)(F)F)o1` [Example 63, 4-(3-{[5-methyl-2-(trifluoromethyl)-3-furyl]methoxy}benzylidene)-N-pyridazin-3-ylpiperidine-1-carboxamide], 131 M⁻¹ s⁻¹; as for `Cc1cccc(OCCOc2cccc(C=C3CCN(C(=O)Nc4cccnn4)CC3)c2)c1` [Example 52, 4-{3-[2-(3-methylphenoxy)ethoxy]benzylidene}-N-pyridazin-3-ylpiperidine-1-carboxamide], 31600 M⁻¹ s⁻¹. With `O=C(Nc1cccnn1)N1CCC(=Cc2cccc(OCCc3ccccn3)c2)CC1` [Example 87, N-pyridazin-3-yl-4-[3-(2-pyridin-2-ylethoxy)benzylidene]piperidine-1-carboxamide], the “hFAAH KInact/K” value was found to be 3485 M⁻¹ s⁻¹. For the molecule `O=C(Nc1cccnc1)N1CCC(=Cc2cccc(OC3CCCC3)c2)CC1` [Example 11, 4-[3-(cyclopentyloxy)benzylidene]-N-pyridin-3-ylpiperidine-1-carboxamide], the “hFAAH KInact/K” value stood at 1900 M⁻¹ s⁻¹. `O=C(Nc1cccnn1)N1CCC(=Cc2cccc(OC3CCCCCC3)c2)CC1` [Example 16, 4-[3-(cycloheptyloxy)benzylidene]-N-pyridazin-3-ylpiperidine-1-carboxamide]: the “hFAAH KInact/K” value turned out to be 2190 M⁻¹ s⁻¹. Turning to `CCC(C)Oc1cccc(C=C2CCN(C(=O)Nc3cccnc3)CC2)c1` (stereo not shown) [Example 23, 4-(3-sec-butoxybenzylidene)-N-pyridin-3-ylpiperidine-1-carboxamide], the “hFAAH KInact/K” value was 555 M⁻¹ s⁻¹. With `O=C(Nc1cccnn1)N1CCC(=Cc2cccc(OCCN3CCCCCC3)c2)CC1` [Example 80, 4-[3-(2-azepan-1-ylethoxy)benzylidene]-N-pyridazin-3-ylpiperidine-1-carboxamide], the “hFAAH KInact/K” value stood at 325 M⁻¹ s⁻¹. As to `CCC(Oc1cccc(C=C2CCN(C(=O)Nc3cccnn3)CC2)c1)C(C)C` (stereo not shown) [Example 64, 4-[3-(1-ethyl-2-methylpropoxy)benzylidene]-N-pyridazin-3-ylpiperidine-1-carboxamide], the “hFAAH KInact/K” value was 379 M⁻¹ s⁻¹.
